The target in data set [1] is T1, Cytochrome P450 11B2, mitochondrial (Homo sapiens, UniProt P19099).
T1 sequence (P19099 whole entry): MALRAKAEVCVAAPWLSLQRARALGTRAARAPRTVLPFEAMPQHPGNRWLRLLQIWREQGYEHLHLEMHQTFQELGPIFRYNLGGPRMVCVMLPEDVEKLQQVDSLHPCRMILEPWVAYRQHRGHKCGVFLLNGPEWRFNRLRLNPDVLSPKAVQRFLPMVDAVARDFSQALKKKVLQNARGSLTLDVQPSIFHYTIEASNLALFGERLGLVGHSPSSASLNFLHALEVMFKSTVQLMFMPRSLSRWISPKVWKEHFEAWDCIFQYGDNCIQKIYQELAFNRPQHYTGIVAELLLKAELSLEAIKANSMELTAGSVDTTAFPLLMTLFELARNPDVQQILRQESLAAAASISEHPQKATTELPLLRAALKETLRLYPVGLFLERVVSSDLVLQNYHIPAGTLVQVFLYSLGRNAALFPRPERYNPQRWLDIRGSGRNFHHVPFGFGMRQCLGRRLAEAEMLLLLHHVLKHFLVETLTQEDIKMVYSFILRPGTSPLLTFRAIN
The data set is classed as cell-based. To be noted: V79MZ, 1 h.

The subject of a further data set is V79MZ. Kind of data set: Selectivity ratio of IC50 for human CYP11B1 expressed in hamster V79MZ cells to IC50 for human CYP11B2 expressed in hamster V79MZ cells. It counts as cell-based.
For the next data set, the target named is T2, CYP17 (Homo sapiens, UniProt P05093).
T2 sequence (P05093 whole entry): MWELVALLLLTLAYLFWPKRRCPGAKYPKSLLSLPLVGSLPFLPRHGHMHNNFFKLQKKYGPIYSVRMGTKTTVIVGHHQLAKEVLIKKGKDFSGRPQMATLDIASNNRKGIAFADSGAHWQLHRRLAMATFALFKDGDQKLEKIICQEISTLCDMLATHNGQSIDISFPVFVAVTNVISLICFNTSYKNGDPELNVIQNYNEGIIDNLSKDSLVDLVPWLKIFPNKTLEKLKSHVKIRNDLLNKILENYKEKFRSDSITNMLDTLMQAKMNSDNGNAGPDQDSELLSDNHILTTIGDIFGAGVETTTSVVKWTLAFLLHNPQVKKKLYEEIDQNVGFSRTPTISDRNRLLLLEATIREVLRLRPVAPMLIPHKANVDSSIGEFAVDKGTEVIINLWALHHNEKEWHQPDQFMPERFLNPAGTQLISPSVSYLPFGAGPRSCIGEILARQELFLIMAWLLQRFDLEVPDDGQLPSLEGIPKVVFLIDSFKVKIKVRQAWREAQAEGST
Kind of data set: Inhibition of human recombinant CYP17 expressed in Escherichia coli using progesterone as substrate at 2 uM. As to conditions: probe progesterone.

A further data set deals with T3, CYP19 (aromatase) (Homo sapiens, UniProt P11511).
T3 sequence (P11511 whole entry): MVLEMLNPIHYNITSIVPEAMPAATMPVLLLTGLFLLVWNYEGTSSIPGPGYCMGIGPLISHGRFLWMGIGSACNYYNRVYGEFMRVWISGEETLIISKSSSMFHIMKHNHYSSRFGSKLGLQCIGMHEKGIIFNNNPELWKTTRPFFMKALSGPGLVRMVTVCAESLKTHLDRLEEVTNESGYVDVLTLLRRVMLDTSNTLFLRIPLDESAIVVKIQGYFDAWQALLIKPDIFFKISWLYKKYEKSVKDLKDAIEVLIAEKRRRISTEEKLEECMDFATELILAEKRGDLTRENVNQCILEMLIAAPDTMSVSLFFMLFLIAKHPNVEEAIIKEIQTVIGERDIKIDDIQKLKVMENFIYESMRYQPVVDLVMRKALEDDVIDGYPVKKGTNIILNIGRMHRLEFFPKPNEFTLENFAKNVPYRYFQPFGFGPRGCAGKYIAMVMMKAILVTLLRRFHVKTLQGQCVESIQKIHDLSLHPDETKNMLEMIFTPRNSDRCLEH
Kind of data set: Inhibition of human recombinant CYP19 using [1beta3H]androstenedione as substrate at 500 nM. To be noted: recombinant human CYP19, probe [1beta3H]androstenedione.

In data set [2] the target is T1, Cytochrome P450 11B2, mitochondrial.
Description: Inhibition of human CYP11B2 expressed in hamster V79MZ cells using [3H]-11-deoxycorticosterone as substrate after 1 hr by HPLC analysis
Data set [3] has as its target T4, Cytochrome P450 11B1, mitochondrial (Homo sapiens, UniProt P15538).
T4 sequence (P15538 whole entry): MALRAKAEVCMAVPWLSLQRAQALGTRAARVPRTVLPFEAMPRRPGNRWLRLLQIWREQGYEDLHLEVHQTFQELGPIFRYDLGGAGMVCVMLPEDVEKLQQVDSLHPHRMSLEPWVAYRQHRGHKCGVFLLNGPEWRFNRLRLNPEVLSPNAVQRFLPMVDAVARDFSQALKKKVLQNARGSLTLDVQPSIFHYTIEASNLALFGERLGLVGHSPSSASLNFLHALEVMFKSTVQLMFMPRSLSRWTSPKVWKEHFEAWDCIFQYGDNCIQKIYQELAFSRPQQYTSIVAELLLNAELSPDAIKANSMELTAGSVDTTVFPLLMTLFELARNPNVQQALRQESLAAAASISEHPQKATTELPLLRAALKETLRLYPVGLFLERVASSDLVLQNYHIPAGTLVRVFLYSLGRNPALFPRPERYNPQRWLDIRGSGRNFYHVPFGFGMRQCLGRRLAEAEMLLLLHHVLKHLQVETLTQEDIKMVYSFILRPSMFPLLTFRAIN
Description: Inhibition of human CYP11B1 expressed in hamster V79MZ cells using [3H]-11-deoxycorticosterone as substrate after 1 hr by HPLC analysis

A short description of data set [4]: Cmax in Wistar rat at 1 mg/kg, po after 0.5 hrs by HPLC-MS/MS analysis. The data set is classed as ADME, organism-based. On the set-up: dose 1 mg/kg, route oral. To be noted: in vivo.
Data set [5] is described as follows: Terminal half life in Wistar rat at 1 mg/kg, iv by HPLC-MS/MS analysis. The data set is classed as ADME, organism-based. On the set-up: dose 1 mg/kg, route intravenous. To be noted: in vivo, read-out: beta t1/2 (converted).
Data set [6] in a line: Terminal half life in Wistar rat at 1 mg/kg, po by HPLC-MS/MS analysis. Also noted: dose 1 mg/kg, route oral. To be noted: in vivo, read-out: beta t1/2 (converted). The data set is classed as ADME, organism-based.
The nature of data set [7]: AUC in Wistar rat at 1 mg/kg, iv by HPLC-MS/MS analysis. It counts as ADME, organism-based. On the set-up: dose 1 mg/kg, route intravenous. To be noted: plasma.
The nature of data set [8]: AUC in Wistar rat at 1 mg/kg, po by HPLC-MS/MS analysis. The data set is classed as ADME, organism-based. Also noted: dose 1 mg/kg, route oral. To be noted: plasma.
Data set [9] can be described thus: Oral bioavailability in Wistar rat at 1 mg/kg by HPLC-MS/MS analysis. It counts as ADME, organism-based. As to conditions: in vivo.

pIC50: −log10 of the molar value.

In general, inhibition refers to the change of the read-out against control, counted positive when it falls. The pIC50 is −log10 of the IC50, conventionally taken in molar units. `[O-][S+](c1ccc(OC(F)(F)F)cc1)c1c(O)c(-c2cccnc2)cc2ccccc12` (centres undefined) came in with an inhibition in data set [1] of 88%. Also, the Ratio IC50 with V79MZ came to 232. In addition, the inhibition at 2 µM at CYP17 was below 5%. For the same molecule, the inhibition at 0.5 µM on CYP19 (aromatase) is below 5%. Also, the pIC50 in [2] is 7.49; in data set [3], 5.13.
In general, Cmax refers to the maximum level reached in the sampled fluid or tissue. In general, AUC refers to concentration integrated over time. As a reminder, the bioavailability is the share of a dose that reaches the circulation, judged against a reference dose that is usually intravenous. A high value points to much systemic uptake. For `[O-][S+](c1cccc(OC(F)(F)F)c1)c1c(O)c(-c2cccnc2)cc2ccccc12` (centres undefined), the inhibition in [1] stood at 83%. Besides, in the data set on V79MZ, the Ratio IC50 was 415. At CYP17, the inhibition at 2 µM is below 5%. In addition, the inhibition at 0.5 µM at CYP19 (aromatase) was below 5%. Further, the highest level in data set [4] (Cmax) was 40.4 ng/mL. For the same molecule, the half-life is 4 h in [5] and 7 h in [6]. For the same molecule, the AUC in data set [7] was determined as 1780 ng·h/mL; in [8] it was 335 ng·h/mL. Besides, the bioavailability in data set [9] stood at 19%. Moreover, the pIC50 in data set [2] was 7.85; in [3] it was 5.24.
In turn, `[O-][S+](c1cccc(Cl)c1)c1c(O)c(-c2cccnc2)cc2ccccc12` (centres undefined) returned an inhibition in data set [1] of 90%. Moreover, the Ratio IC50 in the data set with V79MZ amounted to 80. Besides, the inhibition at 2 µM on CYP17 was below 5%. On CYP19 (aromatase), the inhibition at 0.5 µM is below 5%. In addition, the pIC50 was 7.22 in [2] and 5.32 in [3].

For the origin of these results see ChEMBL document CHEMBL3352541, “1-Phenylsulfinyl-3-(pyridin-3-yl)naphthalen-2-ols: a new class of potent and selective aldosterone synthase inhibitors” (Eur J Med Chem, 2015).
